Reference: patent publication US20220315578A1, “BRD9 BIFUNCTIONAL DEGRADERS AND THEIR METHODS OF USE” (NOVARTIS AG, priority 2019, published 2022)

Biological target: T1, BRD9-GFP (Homo sapiens, UniProt Q9H8M2)
T1 construct: CHYSEL (2A cis-acting hydrolase element) remnant after GFP; mCherry is split off as a separate protein (C); expressed in transfected cells; host or cells: HEK293A cells (Invitrogen R70507), lentiviral transduction with pLenti6-BRD9-GFP-CHYSEL-mCherry, blasticidin selection
T1 sequence (Q9H8M2 1-597): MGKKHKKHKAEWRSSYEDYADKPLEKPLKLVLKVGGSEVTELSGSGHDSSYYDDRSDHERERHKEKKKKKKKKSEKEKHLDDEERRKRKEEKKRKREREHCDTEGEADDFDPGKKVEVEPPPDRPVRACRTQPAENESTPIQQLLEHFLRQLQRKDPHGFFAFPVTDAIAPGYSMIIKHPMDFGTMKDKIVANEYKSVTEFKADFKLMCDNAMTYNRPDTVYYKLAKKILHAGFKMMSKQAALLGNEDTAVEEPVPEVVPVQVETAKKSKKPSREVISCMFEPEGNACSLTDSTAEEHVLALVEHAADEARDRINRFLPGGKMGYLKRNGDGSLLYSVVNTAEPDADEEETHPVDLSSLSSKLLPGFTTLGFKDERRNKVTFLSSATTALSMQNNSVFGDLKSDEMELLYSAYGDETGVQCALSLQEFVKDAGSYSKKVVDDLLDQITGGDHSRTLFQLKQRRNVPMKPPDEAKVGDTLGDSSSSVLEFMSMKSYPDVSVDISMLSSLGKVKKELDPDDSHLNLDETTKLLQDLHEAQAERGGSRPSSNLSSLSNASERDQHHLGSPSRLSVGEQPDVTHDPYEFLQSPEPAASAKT
Assay: BRD9-GFP protein abundance flow cytometry assay in HEK293A cells
Type: cell-based
Settings: HEK293A-BRD9-GFP-CHYSEL-mCherry cells; for BRD9 Deg Amax %: 24 h, % protein remaining at the concentration at which maximum degradation is seen; for DC50: 24 h at 37° C., 10-point 1:3 dilution, concentration at which 50% maximal degradation was observed
Procedure, shortened: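 HEK293A cells stably express bicistronic BRD9-GFP-CHYSEL-mCherry and received 24 h treatment at 37° C with a 10-point, 3-fold dilution series from […], in 0.1% DMSO and duplicate. Median GFP/mCherry ratio of 5,000 single cells by flow cytometry, normalized to mCherry-only cells (0%) and DMSO (100%), gave DC50 and Amax (% protein remaining).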

Structure (SMILES) | BRD9 Deg Amax % | DC50
CCCCn1cc(-c2cc(F)c(CN3CCC(OC4CCN(C(=O)c5ccc(OC)c(N6CCC(=O)NC6=O)c5)CC4)CC3)c(F)c2)c2ccncc2c1=O [Compound E33, 1-(5-(4-((1-(4-(2-butyl-1-oxo-1,2-dihydro-2,7-naphthyridin-4-yl)-2,6-difluorobenzyl)piperi-din-4-yl)oxy)piperi-dine-1-carbonyl)-2-methoxyphenyl)di-hydro-pyrimidine-2,4(1H,3H)-dione] | 14.29% | 5 nM
CCCCn1cc(-c2ccc(O[C@H]3CCN(CC4CCN(CCOc5ccc(C)c(N6CCC(=O)NC6=O)c5)CC4)C[C@@H]3F)c(OC)c2)c2ccncc2c1=O [Compound E22, 1-(5-(2-(4-(((3S,4S)-4-(4-(2-butyl-1-oxo-1,2-dihydro-2,7-naphthyridin-4-yl)-2-methoxyphenoxy)-3-fluoropiperidin-1-yl)methyl)piperidin-1-yl)ethoxy)-2-methylphenyl)dihydropyrimidine-2,4(1H,3H)-dione] | 39.25% | 34 nM
CCCn1cc(-c2cc(F)c(CCN3CCC(OC4CCN(C(=O)c5ccc(OC)c(N6CCC(=O)NC6=O)c5)CC4)CC3)c(F)c2)c(C)c(C)c1=O [Compound E12, 1-(5-(4-((1-(4-(4,5-dimethyl-6-oxo-1-propyl-1,6-dihydropyridin-3-yl)-2,6-difluorophenethyl)piperidin-4-yl)oxy)piperidine-1-carbonyl)-2 methoxyphenyl)dihydropyrimidine-2,4(1H,3H)-dione] | 33.47% | 30 nM
CCCCCCn1cc(-c2cc(OC)c(CCN3CCC(OC4CCN(C(=O)c5ccc(F)c(N6CCC(=O)NC6=O)c5)CC4)CC3)c(OC)c2)c2ccncc2c1=O [Compound E15, 1-(2-fluoro-5-(4-((1-(4-(2-hexyl-1-oxo-1,2-dihydro-2,7-naphthyridin-4-yl)-2,6-dimethoxyphenethyl)piperidin-4-yl)oxy)piperidine-1-carbonyl)phenyl)dihydropyrimidine-2,4(1H,3H)-dione] | 19.85% | 17 nM
CCCCn1cc(-c2ccc(O[C@H]3CCN(CC4CCN(C(=O)COc5ccc(C)c(N6CCC(=O)NC6=O)c5)CC4)C[C@@H]3F)c(OC)c2)c2ccncc2c1=O [Compound E25, 1-(5-(2-(4-(((3S,4S)-4-(4-(2-Butyl-1-oxo-1,2-dihydro-2,7-naphthyridin-4-yl)-2-methoxyphenoxy)-3-fluoropiperidin-1-yl)methyl)piperidin-1-yl)-2-oxoethoxy)-2-methylphenyl)dihydropyrimidine-2,4(1H,3H)-dione] | 13.02% | 1 nM
COc1ccc(C(=O)N2CCC(OC3CCN(CCCc4c(OC)cc(-c5cn(C)c(=O)c6cnccc56)cc4OC)CC3)CC2)cc1N1CCC(=O)NC1=O [Compound A37, 1-(5-(4-((1-(3-(2,6-Dimethoxy-4-(2-methyl-1-oxo-1,2-dihydro-2,7-naphthyridin-4-yl)phenyl)propyl)piperidin-4-yl)oxy)piperidine-1-carbonyl)-2-methoxyphenyl)dihydropyrimidine-2,4(1H,3H)-dione] | 13.01% | 2 nM
CCCn1cc(-c2cc(OC)c(CCN3CC[C@@H](OC4CCN(CCn5cccc(CN6CCC(=O)NC6=O)c5=O)CC4)[C@H](F)C3)c(OC)c2)c(C)c(C)c1=O [Compound E7, 1-((1-(2-(4-(((3R,4R)-1-(4-(4,5-Dimethyl-6-oxo-1-propyl-1,6-dihydropyridin-3-yl)-2,6-dimethoxyphenethyl)-3-fluoropiperidin-4-yl)oxy)piperidin-1-yl)ethyl)-2-oxo-1,2-dihydropyridin-3-yl)methyl)dihydropyrimidine-2,4(1H,3H)-dione] | 18.57% | 4 nM
COc1ccc(C(=O)N2CCC(OC3CCN(C(=O)/C=C/c4c(OC)cc(-c5cn(C)c(=O)c6cnccc56)cc4OC)CC3)CC2)cc1N1CCC(=O)NC1=O [Compound A31, (E)-1-(5-(4-((1-(3-(2,6-dimethoxy-4-(2-methyl-1-oxo-1,2-dihydro-2,7-naphthyridin-4-yl)phenyl)acryloyl)piperidin-4-yl)oxy)piperidine-1-carbonyl)-2-methoxyphenyl)dihydropyrimidine-2,4(1H,3H)-dione] | 15.11% | 10 nM
COc1cc(-c2cc(C)c(=O)n(C)c2)c(OC)cc1CN1CCC(OC2CCN(C(=O)COc3ccc(N4CCC(=O)NC4=O)cc3)CC2)CC1 [Compound A7, 1-(4-(2-(4-((1-(4-(1,5-Dimethyl-6-oxo-1,6-dihydropyridin-3-yl)-2,5-dimethoxybenzyl)piperidin-4-yl)oxy)piperidin-1-yl)-2-oxoethoxy)phenyl)dihydropyrimidine-2,4(1H,3H)-dione] | 21.30% | 60 nM
COc1cc(-c2cn(C)c(=O)c3cnccc23)c(OC)cc1CCN1CCC(OC2CCN(CCn3cccc(CN4CCC(=O)NC4=O)c3=O)CC2)CC1 [Compound C3, 1-((1-(2-(4-((1-(2,5-dimethoxy-4-(2-methyl-1-oxo-1,2-dihydro-2,7-naphthyridin-4-yl)phenethyl)piperidin-4-yl)oxy)piperidin-1-yl)ethyl)-2-oxo-1,2-dihydropyridin-3-yl)methyl)dihydropyrimidine-2,4(1H,3H)-dione] | 17.50% | 77 nM
CCCCn1cc(-c2ccc(O[C@@H]3CCN(CC4CCN(CCn5cccc(CN6CCC(=O)NC6=O)c5=O)CC4)C[C@H]3F)c(F)c2)c2ccncc2c1=O [Compound E17, 1-((1-(2-(4-(((3R,4R)-4-(4-(2-butyl-1-oxo-1,2-dihydro-2,7-naphthyridin-4-yl)-2-fluorophenoxy)-3-fluoropiperidin-1-yl)methyl)piperidin-1-yl)ethyl)-2-oxo-1,2-dihydropyridin-3-yl)methyl)dihydropyrimidine-2,4(1H,3H)-dione] | 18.79% | 5 nM
Cn1cc(-c2cc(F)c(CN3CCC(OC4CCN(CCn5cccc(CN6CCC(=O)NC6=O)c5=O)CC4)CC3)c(F)c2)c2ccncc2c1=O [Compound E18, 1-((1-(2-(4-((1-(2,6-difluoro-4-(2-methyl-1-oxo-1,2-dihydro-2,7-naphthyridin-4-yl)benzyl)piperidin-4-yl)oxy)piperidin-1-yl)ethyl)-2-oxo-1,2-dihydropyridin-3-yl)methyl)dihydro-pyrimidine-2,4(1H,3H)-dione] | 16.66% | 19 nM
Cn1cc(-c2ccc(CN3CCC(OC4CCN(CCn5cccc(CN6CCC(=O)NC6=O)c5=O)CC4)CC3)cc2)c2ccncc2c1=O [Compound E37, 1-((1-(2-(4-((1-(4-(2-methyl-1-oxo-1,2-dihydro-2,7-naphthyridin-4-yl)benzyl)piperidin-4-yl)oxy)piperidin-1-yl)ethyl)-2-oxo-1,2-dihydropyridin-3-yl)methyl)dihydropyrimidine-2,4(1H,3H)-dione] | 13.77% | 9 nM
COc1ccc(C(=O)N2CCC(CN3CCC(Oc4c(OC)cc(-c5cn(C)c(=O)c6cnccc56)cc4OC)CC3)CC2)cc1N1CCC(=O)NC1=O [Compound A6, 1-(5-(4-((4-(2,6-Dimethoxy-4-(2-methyl-1-oxo-1,2-dihydro-2,7-naphthyridin-4-yl)phenoxy)piperidin-1-yl)methyl)piperidine-1-carbonyl)-2-methoxyphenyl)dihydropyrimidine-2,4(1H,3H)-dione] | 12.25% | 3 nM
